The results in this text go back to patent EP1290011B1 (Oncopeptides AB, priority 2000, dated 2001).

Holding throughout (assay): cells
In experiment [1] the test system is solid tumour fresh human tumour specimens (PHTC). The conditions noted are these: 72 h, read-out: Tumour cell survival index % Solid.
The subject of the next experiment is ACHN. It counts as cell-based, human.
In a further experiment the test system is CEM/R. It counts as cell-based, human.
A further experiment deals with H69. Format: cell-based, human.
The test system of a further experiment is U937vcr. It counts as cell-based, human.
Another experiment relates to U-1752. It counts as cell-based.
Another experiment relates to NCI-H23. Format: cell-based.
A further experiment relates to U1690. Format: cell-based.
The subject of the next experiment is U1285. Format: cell-based.
A further experiment concerns U-1568. Format: cell-based.
For another experiment, the system named is NCI-H125. It counts as cell-based.
In another experiment the test system is 8226LR5. It counts as cell-based, human.
The next experiment concerns CEM/S. Format: cell-based, human.
In a further experiment the test system is NCI-H611. It counts as cell-based.
Another experiment relates to U-1906E. Format: cell-based.
Another experiment relates to NCI-H157. Format: cell-based.
A further experiment deals with U-1810. It counts as cell-based.
A further experiment has as its system 8226S. Format: cell-based, human.
For a further experiment, the system named is H69AR. Format: cell-based, human.
The subject of experiment [2] is panel of ten human tumour cell lines. It counts as cell-based. The conditions noted are these: read-out: MEAN IC50.
For experiment [3], the system named is hematological fresh human tumour specimens (PHTC). The conditions noted are these: 72 h, read-out: Tumour cell survival index % Hematological.
The test system of another experiment is 8226Dox40. Format: cell-based, human.
In a further experiment the test system is U937gtb. It counts as cell-based, human.
The subject of the next experiment is U1906L. It counts as cell-based.
Setting [4] is: ACHN, primary resistant renal carcinoma, 72 hours incubation, read-out: IC50.
The mark [5] stands for this setting: CEM/R, 72 hours incubation, read-out: IC50.
Setting [6] is: H69, small cell lung cancer, 72 hours incubation, read-out: IC50.
Where [7] appears, read: 8226Dox40, doxorubicin resistance, 72 hours incubation, read-out: IC50.
[8] abbreviates: U937vcr, vincristine resistance, 72 hours incubation, read-out: IC50.
Where [9] appears, read: 8226LR5, melphalan resistance, 72 hours incubation, read-out: IC50.
Setting [10] is: CEM/S, 72 hours incubation, read-out: IC50.
Setting [11] is: 8226S, myeloma, 72 hours incubation, read-out: IC50.
Where [12] appears, read: H69AR, doxorubicin resistance, 72 hours incubation, read-out: IC50.
[13] abbreviates: U937gtb, lymphoma, 72 hours incubation, read-out: IC50.

Counter-ions that a name gives are not always drawn. Like-named read-outs stand apart in the source and are kept apart here.

With `Nc1ccn([C@@H]2O[C@H](CO)[C@@H](O)[C@@H]2O)c(=O)n1` [AraC], the viability at 10.3 µM in experiment [1] is 102%.
Take `N.N.[Cl][Pt][Cl]` [Cisplatin, cisplatin, reference compound]: the IC50 is 17800 nM with ACHN (read-out: IC50); 1870 nM with CEM/R (read-out: IC50); 92500 nM with H69 (read-out: IC50); 3000 nM in the experiment with U937vcr (read-out: IC50); 11700 nM in the experiment with U-1752 (read-out: IC50); 11600 nM with NCI-H23 (read-out: IC50). The IC50 with U1690 (read-out: IC50) came to 6730 nM; with U1285 (read-out: IC50), 2930 nM; in the experiment with U-1568 (read-out: IC50), 23400 nM; with NCI-H125 (read-out: IC50), 7000 nM; in the experiment on 8226LR5 (read-out: IC50), 16300 nM; with CEM/S (read-out: IC50) it was 2500 nM. Also, the IC50 was 50700 nM with NCI-H611 (read-out: IC50); 21100 nM in the experiment on U-1906E (read-out: IC50); 27000 nM with NCI-H157 (read-out: IC50); 10300 nM in the experiment on U-1810 (read-out: IC50); 14800 nM in the experiment with 8226S (read-out: IC50); 13500 nM in the experiment with H69AR (read-out: IC50). For the same compound, the IC50 in experiment [2] is 18000 nM.
With `COc1cc([C@@H]2c3cc4c(cc3[C@@H](O[C@@H]3O[C@@H]5CO[C@@H](C)O[C@H]5[C@H](O)[C@H]3O)[C@H]3COC(=O)[C@H]23)OCO4)cc(OC)c1O` [Etoposide, etoposide], the figures for the viability at 8.5 µM in experiment [3] and in [1] were 47% and 81%, respectively.
In the case of `O=c1[nH]cc(F)c(=O)[nH]1` [Example 5-FU, 5-FU, reference compound], the 50% inhibitory concentration (IC50) in the experiment with ACHN (setting [4]) was found to be 769000 nM; in the experiment on CEM/R (setting [5]) it was 44500 nM; with H69 (setting [6]) it was 769000 nM; with 8226Dox40 (setting [7]) it was 60600 nM; with U937vcr (setting [8]), 572000 nM; in the experiment with 8226LR5 (setting [9]) it was 5300 nM. Also, the IC50 in the experiment on CEM/S (setting [10]) worked out at 57400 nM; with 8226S (setting [11]), 75600 nM; in the experiment with H69AR (setting [12]), 769000 nM; in [2] (mean over the ten cell lines) it was 321000 nM.
For `CCOC(=O)[C@H](Cc1ccccc1)NC(=O)[C@@H](N)Cc1ccc(N(CCCl)CCCl)cc1` [JV22, L-Melphalanyl-L-phenylalanine ethyl ester hydrochloride], the IC50 came out at 170 nM in the experiment with ACHN (read-out: IC50); 10 nM in the experiment with CEM/R (read-out: IC50); 40 nM in the experiment on H69 (read-out: IC50); 1380 nM in the experiment on 8226Dox40 (read-out: IC50); 130 nM in the experiment with U937vcr (read-out: IC50); 140 nM with U937gtb (read-out: IC50). Besides, the 50% inhibitory concentration (IC50) with 8226LR5 (read-out: IC50) is 1860 nM; with CEM/S (read-out: IC50) it was 20 nM; with 8226S (read-out: IC50) it was 670 nM; in the experiment with H69AR (read-out: IC50), 390 nM; in [2], 480 nM.
For the compound `CCOC(=O)[C@H](Cc1ccc(O)cc1)NC(=O)[C@@H](N)Cc1ccc(N(CCCl)CCCl)cc1` [JV24, L-Helphalanyl-L-tyrosine ethyl ester hydrochloride], the IC50 came to 320 nM with ACHN (read-out: IC50); 30 nM in the experiment on CEM/R (read-out: IC50); 80 nM with H69 (read-out: IC50); 5540 nM in the experiment with 8226Dox40 (read-out: IC50); 210 nM with U937vcr (read-out: IC50); 200 nM in the experiment with U937gtb (read-out: IC50). The IC50 with 8226LR5 (read-out: IC50) is 2500 nM; in the experiment on CEM/S (read-out: IC50), 50 nM; in the experiment on 8226S (read-out: IC50), 1110 nM; in the experiment with H69AR (read-out: IC50), 480 nM; in [2] it was 1050 nM.
In the case of `CCOC(=O)[C@H](Cc1ccc(OC)cc1)NC(=O)[C@@H](N)Cc1ccc(N(CCCl)CCCl)cc1` [JV25, L-Melphalanyl-L-p-methoxyphenylalanine ethyl ester hydrochloride], the IC50 in the experiment on ACHN (setting [4]) was 200 nM; with CEM/R (setting [5]), 20 nM; in the experiment with H69 (setting [6]), 40 nM; with 8226Dox40 (setting [7]), 1200 nM; in the experiment on U937vcr (setting [8]), 160 nM; with U937gtb (setting [13]) it was 150 nM. Further, the IC50 with 8226LR5 (setting [9]) is 1820 nM; in the experiment with CEM/S (setting [10]), 40 nM; with 8226S (setting [11]) it was 650 nM; with H69AR (setting [12]), 280 nM; in experiment [2] (mean over the ten cell lines), 460 nM.
Consider `CCOC(=O)[C@H](Cc1ccc([N+](=O)[O-])cc1)NC(=O)[C@@H](N)Cc1ccc(N(CCCl)CCCl)cc1` [JV26, L-Malphalanyl-L-p-nitrophenylalanine ethyl ester hydrochloride], for which the half-inhibitory concentration (IC50) with ACHN (setting [4]) amounted to 220 nM; with CEM/R (setting [5]), 30 nM; in the experiment with H69 (setting [6]), 60 nM; with 8226Dox40 (setting [7]), 1730 nM; in the experiment on U937vcr (setting [8]), 260 nM; in the experiment with U937gtb (setting [13]) it was 230 nM. In addition, the IC50 was found to be 1990 nM in the experiment on 8226LR5 (setting [9]); 50 nM in the experiment on CEM/S (setting [10]); 1050 nM with 8226S (setting [11]); 510 nM in the experiment on H69AR (setting [12]); 610 nM in experiment [2] (mean over the ten cell lines).
In the case of `CCOC(=O)[C@H](Cc1ccc(N(CCCl)CCCl)cc1)NC(=O)[C@@H](N)Cc1ccc(N(CCCl)CCCl)cc1` [JV27, L-Melphalanyl-L-melphalan ethyl ester hydrochloride], the IC50 was 210 nM in the experiment on ACHN (setting [4]); 100 nM in the experiment on CEM/R (setting [5]); 290 nM in the experiment with H69 (setting [6]); 1580 nM with 8226Dox40 (setting [7]); 260 nM with U937vcr (setting [8]); 160 nM in the experiment with U937gtb (setting [13]). The half-inhibitory concentration (IC50) with 8226LR5 (setting [9]) amounted to 2460 nM; in the experiment with CEM/S (setting [10]), 140 nM; in the experiment with H69AR (setting [12]), 1400 nM; in experiment [2] (mean over the ten cell lines), 760 nM.
On to `CCOC(=O)[C@H](Cc1ccc(N)cc1)NC(=O)[C@@H](N)Cc1ccc(N(CCCl)CCCl)cc1` [JV29, L-Me3phalariyl-L-p-aminophenylalanine ethyl ester hydrochloride], for which the IC50 in the experiment with ACHN (setting [4]) is 190 nM; with CEM/R (setting [5]), 30 nM; in the experiment with H69 (setting [6]), 90 nM; with 8226Dox40 (setting [7]), 2010 nM; with U937vcr (setting [8]), 190 nM; in the experiment on U937gtb (setting [13]), 150 nM. The IC50 with 8226LR5 (setting [9]) amounted to 2730 nM; in the experiment with CEM/S (setting [10]) it was 60 nM; in the experiment on 8226S (setting [11]), 900 nM; with H69AR (setting [12]), 460 nM; in [2] (mean over the ten cell lines) it was 680 nM.
Regarding `CC[C@@]1(O)C(=O)OCc2c1cc1n(c2=O)Cc2cc3c(CN(C)C)c(O)ccc3nc2-1` [Topotecan, topotecan, reference compound], the IC50 with ACHN (Homo sapiens, ACHN, 72 h) came to 16300 nM; in the experiment with CEM/R (Homo sapiens, 72 h), 20 nM; in the experiment with H69 (Homo sapiens, NCI-H69, 72 h), 1720 nM; in the experiment on 8226Dox40 (Homo sapiens, 72 h), 590 nM; in the experiment on U937vcr (Homo sapiens, 72 h), 20 nM; with U-1752, 28000 nM. In addition, the IC50 with NCI-H23 (Homo sapiens, NCI-H23) was 5840 nM; with U1690, 920 nM; in the experiment on U1285, 170 nM; in the experiment on U1906L, 120 nM; in the experiment with U-1568, 115000 nM; in the experiment on NCI-H125 (Homo sapiens, NCI-H125), 236000 nM. The half-maximal inhibitory concentration (IC50) in the experiment with U937gtb (Homo sapiens, U-937/GTB, 72 h) is 20 nM; in the experiment on 8226LR5 (Homo sapiens, 72 h), 210 nM; with CEM/S (Homo sapiens, 72 h), 20 nM; in the experiment on NCI-H611, 236000 nM; in the experiment on U-1906E it was 80 nM; in the experiment with NCI-H157 (Homo sapiens, NCI-H157) it was 4330 nM. The IC50 was determined as 80 nM in the experiment on U-1810 (U-1810); 870 nM in the experiment on 8226S (Homo sapiens, 72 h); 180000 nM in the experiment on H69AR (Homo sapiens, H69AR, 72 h); 20000 nM in experiment [2] (Homo sapiens).
As for `CC[C@]1(O)C[C@H]2CN(CCc3c([nH]c4ccccc34)[C@@](C(=O)OC)(c3cc4c(cc3OC)N(C=O)[C@H]3[C@@](O)(C(=O)OC)[C@H](OC(C)=O)[C@]5(CC)C=CCN6CC[C@]43[C@@H]65)C2)C1` [Vincristine, vincristine, reference compound], the viability at 3 µM in [3] turned out to be 39%; in experiment [1], 93%. The IC50 turned out to be 109000 nM with ACHN (Homo sapiens, ACHN, 72 h); 10 nM in the experiment with CEM/R (Homo sapiens, 72 h); 69800 nM with H69 (Homo sapiens, NCI-H69, 72 h); 900 nM in the experiment on 8226Dox40 (Homo sapiens, 72 h); 80 nM with U937vcr (Homo sapiens, 72 h); 10 nM in the experiment on U937gtb (Homo sapiens, U-937/GTB, 72 h). Besides, the IC50 in the experiment with 8226LR5 (Homo sapiens, 72 h) amounted to 80 nM; with CEM/S (Homo sapiens, 72 h), 80 nM; in the experiment on 8226S (Homo sapiens, 72 h), 10 nM; with H69AR (Homo sapiens, H69AR, 72 h), 121000 nM; in experiment [2] (Homo sapiens) it was 30100 nM.
With `CCC1=C[C@@H]2CN(C1)Cc1c([nH]c3ccccc13)[C@@](C(=O)OC)(c1cc3c(cc1OC)N(C)[C@H]1[C@@](O)(C(=O)OC)[C@H](OC(C)=O)[C@]4(CC)C=CCN5CC[C@]31[C@@H]54)C2` [Vinorelbine, vinorelbine], the values for the viability at 3.1 µM in experiment [3] and in [1] were 50% and 73%, respectively.
